# In patent US7420001B2 (Wyeth, priority 2003, dated 2008):
# Where two headings read alike, the source gives them in different places.
# Key:
# MMP-9 = molecular target: T1, MMP-9 (Homo sapiens, UniProt P14780); test: MMP-9 activity assay; type: biochemical; conditions: recombinant human MMP-9
# T1 construct: Active, recombinant human MMP-9 (83 kDa) was purchased from Calbiochem (catalog #PF024); purchased Calbiochem PF024
# Method: (§1) A continuous assay was used in which the substrate is a synthetic peptide containing a fluorescent group (7-methoxycoumarin; Mca) that is quenched by energy transfer to a 2,4-dinitrophenyl group. […] The concentration of the substrate stock was spectrophotometrically determined using the extinction coefficient at 410 nm of 7500 M^−1cm^−1. The assay buffer (pH 7.4) consisted of 50 mM Hepes, 100 mM NaCl, 5 mM CaCl2, and 0.005% Brij-35. Each well of black polystyrene 96-well plates contained a reaction consisting of assay buffer, purified MMP (final concentration of 1.0 nM, prepared by dilution with assay buffer), and varied concentrations of inhibitor (prepared by serial dilution in DMSO in 96-well polypropylene plates). The plates were then incubated at room temperature for 30 minutes. […] The final DMSO concentration in the assay was 10% and the final, total assay volume was 200 μl. […] Plots of the inhibitor concentration vs. the initial cleavage rate were fit to the following equation in order to determine IC50 values: y=Vmax*(1−(x^n/(K^n+x^n))), whereby x=inhibitor concentration, y=initial rate, Vmax=initial rate in the absence of inhibitor, n=slope factor, and K=IC50 for the inhibition curve.
# Active, recombinant human MMP-9 (83 kDa) was purchased from Calbiochem (catalog #PF024).
# MMP-14 = molecular target: T2, MMP-14 (Homo sapiens, UniProt P50281); test: In-vitro fluorescence assay of MMP-14 activity; type: biochemical
# T2 construct: 20 kDa; purchased Chemicon International, Inc. CC 1041
# Method: A continuous assay was used in which the substrate is a synthetic peptide containing a fluorescent group (7-methoxycoumarin; Mca) which is quenched by energy transfer to a 2,4-dinitrophenyl group. […] The substrate used was Mca-PQGL-(3-[2,4-dinitrophenyl]-L-2,3-diaminopropionyl)-AR-OH (denoted as Wammp-5, custom synthesized by AnaSpec, Inc.). The assay buffer consisted of 50 mM Hepes (pH 7.4), 100 mM NaCl, 5 mM CaCl2, and 0.005% Brij-35. […] The enzymatic reactions were initiated by adding the substrate to a final concentration of 20 μM, and mixing 10 times with a pipette. The final DMSO concentration in the assay was 6.0%.
# (§2) Plots of the inhibitor concentration vs. the percent inhibition were fit to the following equation: y=(a−d)/[1+(x/c)^b]+d, a general sigmoidal curve with Hill slope, a to d. x is the inhibitor concentration under test. y is the percent inhibition. a is the limiting response as x approaches zero. As x increases without bound, y tends toward its limit d. c is the inflection point (IC50) for the curve. That is, y is halfway between the lower and upper asymptotes when x=c. b is the slope factor or Hill coefficient.
# MMP-1 = molecular target: T3, MMP-1 (Homo sapiens, UniProt P03956)
# T3 sequence (P03956 100-269 limits assumed): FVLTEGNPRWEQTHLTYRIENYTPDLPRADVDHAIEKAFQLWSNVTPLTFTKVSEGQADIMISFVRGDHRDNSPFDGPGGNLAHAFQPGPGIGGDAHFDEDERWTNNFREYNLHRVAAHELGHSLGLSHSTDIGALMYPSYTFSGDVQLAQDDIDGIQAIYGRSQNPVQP
# Method: A continuous assay was used in which the substrate is a synthetic peptide containing a fluorescent group (7-methoxycoumarin; Mca) which is quenched by energy transfer to a 2,4-dinitrophenyl group. […] The substrate used was Mca-PQGL-(3-[2,4-dinitrophenyl]-L-2,3-diaminopropionyl)-AR-OH (denoted as Wammp-5, custom synthesized by AnaSpec, Inc.). The assay buffer consisted of 50 mM Hepes (pH 7.4), 100 mM NaCl, 5 mM CaCl2, and 0.005% Brij-35. Each well of black polystyrene 96-well plates contained a 200 μL reaction mixture consisting of assay buffer, purified MMP (final concentration of 25 ng/ml, prepared by diluting with the assay buffer), and varied concentrations of inhibitor (prepared by serially diluting a given inhibitor in DMSO in 96-well polypropylene plate). […] The enzymatic reactions were initiated by adding the substrate to a final concentration of 20 μM, and mixing 10 times with a pipette. The final DMSO concentration in the assay was 6.0%.
# as §2
# MMP-2 = molecular target: T4, MMP-2 (Homo sapiens, UniProt P08253); test: In-vitro fluorescence assay of MMP-2 activity; type: biochemical; conditions: recombinant human MMP-2; read-out: MMP-2 IC50
# T4 construct: purchased Oncogene Research Products (Calbiochem) PF023
# T4 sequence (P08253 110-660): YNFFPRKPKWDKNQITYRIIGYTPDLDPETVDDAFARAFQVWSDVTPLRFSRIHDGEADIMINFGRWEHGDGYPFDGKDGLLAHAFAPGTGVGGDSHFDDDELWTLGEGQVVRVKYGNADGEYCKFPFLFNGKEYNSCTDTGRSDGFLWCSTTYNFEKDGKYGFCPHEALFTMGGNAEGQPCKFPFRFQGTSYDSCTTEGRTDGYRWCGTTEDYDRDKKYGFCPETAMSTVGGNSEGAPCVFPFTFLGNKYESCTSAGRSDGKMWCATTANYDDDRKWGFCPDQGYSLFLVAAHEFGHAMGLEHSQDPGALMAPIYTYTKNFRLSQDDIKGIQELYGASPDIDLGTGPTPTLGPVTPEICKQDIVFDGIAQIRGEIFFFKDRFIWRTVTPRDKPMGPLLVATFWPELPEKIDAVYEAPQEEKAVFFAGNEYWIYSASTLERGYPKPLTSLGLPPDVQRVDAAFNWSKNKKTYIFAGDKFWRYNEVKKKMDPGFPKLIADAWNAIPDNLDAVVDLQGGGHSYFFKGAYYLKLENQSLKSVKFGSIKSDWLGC
# Excerpt: A continuous assay was used in which the substrate is a synthetic peptide containing a fluorescent group (7-methoxycoumarin; Mca) which is quenched by energy transfer to a 2,4-dinitrophenyl group. […] The source of enzyme in the assay was the recombinant human MMP-2 (66 kDa) purchased from Oncogene Research Products (catalog number PF023 from Calbiochem). The substrate used was Mca-PQGL-(3-[2,4-dinitrophenyl]-L-2,3-diaminopropionyl)-AR-OH (denoted as Wammp-5, custom synthesized by AnaSpec, Inc.). The assay buffer consisted of 50 mM Hepes (pH 7.4), 100 mM NaCl, 5 mM CaCl2, and 0.005% Brij-35. […] The enzymatic reactions were initiated by adding the substrate to a final concentration of 20 μM, and mixing 10 times with a pipette. The final DMSO concentration in the assay was 6.0%.
# as §2
# MMP-12 = molecular target: T5, MMP-12 (Homo sapiens, UniProt P39900); test: In vitro fluorescence assay of MMP-12 activity; type: biochemical; conditions: recombinant human MMP-12
# T5 construct: made in house
# Method: A continuous, assay was used in which the substrate is a synthetic peptide containing a fluorescent group (7-methoxycoumarin; Mca) which is quenched by energy transfer to a 2,4-dinitrophenyl group. […] The concentration of the substrate stock was spectrophotometrically determined using the extinction coefficient at 410 nm of 7500 M^−1cm^−1. The assay buffer (pH 7.4) consisted of 50 mM Hepes, 100 mM NaCl, 5 mM CaCl2, and 0.005% Brij-35. […] The plates were then incubated at room temperature for 30 minutes. The enzymatic reactions were initiated by adding substrate to a final concentration of 20 μM and they were mixed by pipetting up and down. The final DMSO concentration in the assay was 10% and the final, total assay volume was 200 μl.
# MMP-7 = molecular target: T6, MMP-7 (Homo sapiens, UniProt P09237); test: MMP-7 activity assay; type: biochemical; conditions: recombinant human MMP-7
# T6 construct: Active, recombinant human MMP-7 was purchased from Calbiochem (catalog #444270; expressed in E. coli, 19 kDa); purchased Calbiochem 444270; host or cells: E. coli
# T6 sequence (P09237 95-267): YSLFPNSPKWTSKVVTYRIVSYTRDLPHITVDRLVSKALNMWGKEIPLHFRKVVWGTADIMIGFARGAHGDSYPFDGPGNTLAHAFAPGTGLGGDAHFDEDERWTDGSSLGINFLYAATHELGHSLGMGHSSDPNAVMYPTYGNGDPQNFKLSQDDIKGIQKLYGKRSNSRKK
# Method: as §1
# MMP-13 = molecular target: T7, MMP-13 (Homo sapiens, UniProt P45452); test: In-vitro fluorescence assay of MMP-13 activity; type: biochemical; conditions: recombinant human catalytic domain of MMP-13; read-out: MMP-13 IC50
# T7 construct: made in house
# Method: A continuous assay was used in which the substrate is a synthetic peptide containing a fluorescent group (7-methoxycoumarin; Mca) which is quenched by energy transfer to a 2,4-dinitrophenyl group. […] The substrate used was Mca-PQGL-(3-[2,4-dinitrophenyl]-L-2,3-diaminopropionyl)-AR-OH (denoted as Wammp-5, custom synthesized by AnaSpec, Inc.). The assay buffer consisted of 50 mM Hepes (pH 7.4), 100 mM NaCl, 5 mM CaCl2, and 0.005% Brij-35. Each well of black polystyrene 96-well plates contained a 200 μL reaction mixture consisting of assay buffer, purified MMP (final concentration of 0.5 nM, prepared by diluting with the assay buffer), and varied concentrations of inhibitor (prepared by serially diluting a given inhibitor in DMSO in 96-well polypropylene plate). […] The enzymatic reactions were initiated by adding the substrate to a final concentration of 20 μM, and mixing 10 times with a pipette. The final DMSO concentration in the assay was 6.0%.
# as §2
# Aggrecanase-1 = molecular target: T8, Aggrecanase-1 (Homo sapiens, UniProt O75173); test: Aggrecanase-1 FRET assay; type: biochemical; conditions: rAgg1, WAAG-3R substrate; read-out: AGG-1 IC50
# T8 sequence (O75173 213-837): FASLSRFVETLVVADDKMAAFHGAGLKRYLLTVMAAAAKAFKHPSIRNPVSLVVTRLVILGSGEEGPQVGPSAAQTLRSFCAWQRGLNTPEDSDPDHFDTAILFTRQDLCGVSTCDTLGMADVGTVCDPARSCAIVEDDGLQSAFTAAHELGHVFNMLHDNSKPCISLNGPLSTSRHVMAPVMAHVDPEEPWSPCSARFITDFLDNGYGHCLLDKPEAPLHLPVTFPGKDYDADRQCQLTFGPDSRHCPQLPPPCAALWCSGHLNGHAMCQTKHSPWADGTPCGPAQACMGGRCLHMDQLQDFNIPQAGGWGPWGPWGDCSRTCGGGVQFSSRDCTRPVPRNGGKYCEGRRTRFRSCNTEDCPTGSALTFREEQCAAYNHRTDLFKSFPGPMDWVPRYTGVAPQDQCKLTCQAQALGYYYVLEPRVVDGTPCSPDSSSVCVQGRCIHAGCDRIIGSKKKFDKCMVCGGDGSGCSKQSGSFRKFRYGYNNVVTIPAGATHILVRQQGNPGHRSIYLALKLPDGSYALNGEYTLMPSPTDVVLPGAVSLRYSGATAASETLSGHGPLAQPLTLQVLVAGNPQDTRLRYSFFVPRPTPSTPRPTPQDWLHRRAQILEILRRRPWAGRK
# Method: h. Aggrecanase-1 FRET Assay:
# The following protocol was used: • Fluorimeter was started and temperature set to 30° C., about 30 min before setting up the assay. The following reagents are used: • Buffer: 50 mM HEPES, pH 7.5, 100 mM NaCl, 5 mM CaCl2, 0.1% CHAPS, 5% glycerol. • rAgg1: 5 μg/ml (final concentration in the assay): • Substrate: WAAG-3R (MWT=1645.8, Anaspec, stored at 4° C.). Make a stock at 2 mg/ml in 100% DMSO. Measure the absorbance at 354 nm (ε=18172 M^−1 cm^−1) to determine the exact concentration. Dilute to 62.5 μM in buffer. Store unused 100% DMSO stock at −80° C. Final concentration of substrate in the assay is 25 μM. […] Make up inhibitors at 10× starting concentration in 100% DMSO. Perform serial dilutions (in duplicate) across the nunc plate in 100% DMSO; • Dilution plates: Nunc, polypropylene low binding (Nalgene) • Assay plate: Fluoronunc (Nalgene) • Fluorimeter: GeminiXS (Molecular Devices).; • The assay is performed as follows: The plates are set up so that the final column (12) is used for controls. Total reaction volume is 100 μl. Each compound is assayed in duplicate, so 4 compounds are screened per plate. • 1) Add buffer to the entire 96-well plate (30 ρl/well). • 2) Dilute rAgg1 to 25 μg/ml buffer just prior to addition on the plate. Add 20 μl/well to all wells. Mix 6 times. • 3) Add 10 μl/well of 10× inhibitors from the working plate, except column 12. Mix 6 times. […] Mix 6 times.
# The reaction is monitored for 30-40 min at 30° C. λex: 340 nm and λ em: 420 nm). The fluorescence is linear during this time and the slope of the line (Vmax/sec) represents the initial reaction rate, ν. The maximal rate of cleavage of substrate is determined in the absence of inhibitor. The percent inhibition of activity in the presence of inhibitor is calculated as follows:
# [formula] The IC50 was obtained by fitting the initial rate, ν, or % inhibition at each concentration of inhibitor to the following equation in Excel. y=(a−d)/(1+C/IC50)^n)+d This model describes a sigmoidal curve with an adjustable baseline, […]. y is the % inhibition or initial rate of reaction, C is the concentration of inhibitor under test. a is the limiting response as C approaches zero. […] The sign of n is positive when the response increases with increasing dose and is negative when the response decreases with increasing dose (inhibition).
# [1] = recombinant human catalytic domain of MMP-14
# T1 sequence (P14780 107-707 limits assumed): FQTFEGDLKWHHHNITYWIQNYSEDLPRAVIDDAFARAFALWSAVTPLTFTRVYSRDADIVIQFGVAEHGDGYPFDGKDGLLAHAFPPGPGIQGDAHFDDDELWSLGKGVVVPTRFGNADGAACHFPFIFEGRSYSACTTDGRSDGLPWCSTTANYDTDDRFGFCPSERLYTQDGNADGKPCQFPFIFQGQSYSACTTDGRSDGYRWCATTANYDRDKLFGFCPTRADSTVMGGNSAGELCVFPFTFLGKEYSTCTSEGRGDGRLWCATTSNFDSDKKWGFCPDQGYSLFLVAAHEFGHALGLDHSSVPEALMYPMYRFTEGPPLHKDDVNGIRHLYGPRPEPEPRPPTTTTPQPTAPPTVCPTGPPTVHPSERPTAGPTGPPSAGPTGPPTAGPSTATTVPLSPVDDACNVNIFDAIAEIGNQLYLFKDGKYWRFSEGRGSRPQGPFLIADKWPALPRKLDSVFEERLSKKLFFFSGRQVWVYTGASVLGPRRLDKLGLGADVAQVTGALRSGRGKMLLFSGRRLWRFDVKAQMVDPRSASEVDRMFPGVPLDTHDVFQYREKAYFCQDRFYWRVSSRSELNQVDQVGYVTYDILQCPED
# T5 sequence (P39900 106-280 limits assumed): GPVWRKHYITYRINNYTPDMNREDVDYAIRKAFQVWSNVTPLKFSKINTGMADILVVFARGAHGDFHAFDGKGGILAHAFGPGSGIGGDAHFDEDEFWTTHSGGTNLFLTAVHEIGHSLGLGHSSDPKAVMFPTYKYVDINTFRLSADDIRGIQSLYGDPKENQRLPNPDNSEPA
SMILES,IC50 (MMP-9),IC50 (MMP-14),IC50 (MMP-1),IC50 (MMP-2),IC50 (MMP-12),IC50 (MMP-7),IC50 (MMP-13),IC50 (Aggrecanase-1),IC50 (MMP-14; [1]),"inhibition at […] (MMP-14; read-out: MMP-14 % inhibition at a concentration, at 1.6 uM)"
"CC(C)[C@H](NS(=O)(=O)c1ccc(-c2ccc(NC(=O)c3cc4ccccc4o3)cc2)cc1)C(=O)O [Example 2, L-2-{4′-[(Benzofuran-2-carbonyl)-amino]-biphenyl-4-sulfonylamino}-3-methyl-butyric acid]",1100 nM,2200 nM,> 3500 nM,6.5 nM,,,,,,
"COCCCc1cccc2oc(C(=O)Nc3ccc(-c4ccc(S(=O)(=O)N[C@H](C(=O)O)C(C)C)cc4)cc3)c(C)c12 [Example 30, L-2-(4′-{[4-(3-Methoxy-propyl)-3-methyl-benzofuran-2-carbonyl]-amino}-biphenyl-4-sulfonylamino)-3-methyl-butyric acid]",1500 nM,,> 18000 nM,4000 nM,85 nM,6000 nM,11 nM,14000 nM,26200 nM,
"CCC(C)Oc1cccc2oc(C(=O)Nc3ccc(-c4ccc(S(=O)(=O)N[C@H](C(=O)O)C(C)C)cc4)cc3)c(C)c12 (stereo partly drawn) [Example 53, L-2-{4′-[(4-sec-Butoxy-3-methyl-benzofuran-2-carbonyl)-amino]-biphenyl-4-sulfonylamino}-3-methyl-butyric acid]",> 4000 nM,,,10000 nM,,2600 nM,17 nM,,,
"Cc1cc(-c2ccc(S(=O)(=O)N[C@@H](C(=O)O)C(C)C)cc2)cc(C)c1OC(=O)c1oc2ccccc2c1C [Example 132, D-3-Methyl-benzofuran-2-carboxylic acid 4′-(1-carboxy-2-methyl-propylsulfamoyl)-3,5-dimethyl-biphenyl-4-yl ester]",,,,346 nM,,,14 nM,2200 nM,100000 nM,
"Cc1cc(-c2ccc(S(=O)(=O)N[C@@H](C(=O)O)C(C)C)cc2)cc(C)c1OC(=O)c1cc2ccccc2o1 [Example 133, D-Benzofuran-2-carboxylic acid 4′-(1-carboxy-2-methyl-propylsulfamoyl)-3,5-dimethyl-biphenyl-4-yl ester]",,,100000 nM,64 nM,,,5.2 nM,800 nM,12000 nM,
"Cc1c(C(=O)Oc2ccc(-c3ccc(S(=O)(=O)N[C@@H](C(=O)O)C(C)C)cc3)cc2)oc2ccccc12 [Example 134, D-3-Methyl-benzofuran-2-carboxylic acid 4′-(1-carboxy-2-methyl-propylsulfamoyl)-biphenyl-4-yl ester]",,,,17 nM,,,1.2 nM,113 nM,6250 nM,
"COc1c(Br)ccc2oc(COc3ccc(-c4ccc(S(=O)(=O)N[C@@H](C(=O)O)C(C)C)cc4)cc3)c(C)c12 [Example 136, D-2-[4′-(5-Bromo-4-methoxy-3-methyl-benzofuran-2-ylmethoxy)-biphenyl-4-sulfonylamino]-3-methyl-butyricacid]",> 7000 nM,,400000 nM,135 nM,20 nM,1100 nM,1.8 nM,430 nM,5000 nM,
"CC(C)[C@@H](NS(=O)(=O)c1ccc(-c2ccc(OCc3nc4ccccc4s3)cc2)cc1)C(=O)O [Example 137, D-2-[4′-(Benzothiazol-2-ylmethoxy)-biphenyl-4-sulfonylamino]-3-methyl-butyric acid]",,,,23.9 nM,,,4.6 nM,2500 nM,,49%
"CC(C)[C@@H](NS(=O)(=O)c1ccc(-c2ccc(CS(=O)(=O)c3cc4ccccc4o3)cc2)cc1)C(=O)O [Example 164, D-2-[4′-(Benzofuran-2-sulfonylmethyl)-biphenyl-4-sulfonylamino]-3-methyl-butyric acid]",,,500000 nM,5.6 nM,,,1.1 nM,12700 nM,1430 nM,
"CC(C)[C@@H](NS(=O)(=O)c1ccc(-c2ccc(C[S+]([O-])c3cc4ccccc4o3)cc2)cc1)C(=O)O (stereo partly drawn) [Example 165, D-2-[4′-(Benzofuran-2-sulfinylmethyl)-biphenyl-4-sulfonylamino]-3-methyl-butyric acid]",,,,5.6 nM,4.6 nM,,1.2 nM,20000 nM,2120 nM,
"CC(C)[C@@H](NS(=O)(=O)c1ccc(-c2ccc(NC(=O)c3ccco3)cc2)cc1)C(=O)O [Example 172, (R)-2-{4′-[(Furan-2-carbonyl)-amino]-biphenyl-4-sulfonylamino}-3-methyl-butyric acid]",,,18500 nM,6.9 nM,,,29 nM,43000 nM,8920 nM,
